From patent US10703756B2, “Pyrrolo[2,3-D]pyrimidinyl, pyrrolo[2,3-B]pyrazinyl, pyrrolo[2,3-B]pyridinyl acrylamides and epoxides thereof” (Pfizer Inc., priority 2015, dated 2020)

Columns and labels:
JAK3 enzyme [1] = target: T1, JAK3 enzyme (Homo sapiens, UniProt P52333); assay: JAK Caliper Enzyme Assay at 4 μM ATP; assay type: biochemical
T1 sequence (P52333 1-1124): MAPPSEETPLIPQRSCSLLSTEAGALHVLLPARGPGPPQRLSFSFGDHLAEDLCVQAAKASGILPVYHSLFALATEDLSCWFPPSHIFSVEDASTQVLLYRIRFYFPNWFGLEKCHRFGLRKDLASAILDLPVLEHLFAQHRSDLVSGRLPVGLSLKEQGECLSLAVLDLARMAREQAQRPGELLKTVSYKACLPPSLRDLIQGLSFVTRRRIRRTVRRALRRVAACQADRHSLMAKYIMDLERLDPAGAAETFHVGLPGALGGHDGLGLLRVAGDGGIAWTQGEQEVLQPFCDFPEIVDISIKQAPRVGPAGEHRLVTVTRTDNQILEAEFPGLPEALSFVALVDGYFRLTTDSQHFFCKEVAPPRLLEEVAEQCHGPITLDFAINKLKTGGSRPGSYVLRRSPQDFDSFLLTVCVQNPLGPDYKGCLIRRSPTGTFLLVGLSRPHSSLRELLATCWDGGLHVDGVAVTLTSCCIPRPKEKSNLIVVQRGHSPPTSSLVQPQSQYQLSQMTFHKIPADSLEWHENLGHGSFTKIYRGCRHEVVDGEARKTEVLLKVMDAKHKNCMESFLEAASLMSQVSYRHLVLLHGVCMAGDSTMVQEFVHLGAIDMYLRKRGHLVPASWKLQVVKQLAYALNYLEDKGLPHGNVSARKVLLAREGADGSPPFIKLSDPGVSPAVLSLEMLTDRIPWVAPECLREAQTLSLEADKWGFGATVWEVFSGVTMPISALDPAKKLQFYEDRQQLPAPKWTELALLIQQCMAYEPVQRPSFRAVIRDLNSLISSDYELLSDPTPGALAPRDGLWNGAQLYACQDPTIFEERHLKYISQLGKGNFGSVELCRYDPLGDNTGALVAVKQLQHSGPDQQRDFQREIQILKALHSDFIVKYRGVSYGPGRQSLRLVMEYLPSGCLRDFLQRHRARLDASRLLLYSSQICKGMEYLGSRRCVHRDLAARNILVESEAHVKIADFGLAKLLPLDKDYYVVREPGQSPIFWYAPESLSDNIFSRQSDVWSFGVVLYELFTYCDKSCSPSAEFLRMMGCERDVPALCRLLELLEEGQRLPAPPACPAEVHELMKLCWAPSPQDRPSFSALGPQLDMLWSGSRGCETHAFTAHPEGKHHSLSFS
Summary of the method: (§1)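 Peptide phosphorylation by the kinase, adjusted to 20%-30% conversion, is measured by microfluidic separation of substrate and product on a Caliper LC3000. Compounds run as 11-point half-log series from a 600 μM DMSO top concentration.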

JAK3 enzyme [2] = target: T1, JAK3 enzyme; assay: JAK Caliper Enzyme Assay at 1 mM ATP; assay type: biochemical
Summary of the method: as §1

| IC50 (JAK3 enzyme [1]) | IC50 (JAK3 enzyme [2]) | SMILES |
| --- | --- | --- |
| 75.3 nM | > 10000 nM | C=CC(=O)N1CC(Nc2cnc3[nH]cc(C(=O)NCCCC(F)(F)F)c3n2)C2(CC2)C1 (centres unmarked) [Example 249, 2-[(5-acryloyl-5-azaspiro[2.4]hept-7-yl)amino]-N-(4,4,4-trifluorobulyl)-5H-pyrrolo[2,3-b]pyrazine-7-carboxamide] |
| 30 nM | 3470 nM | C=CC(=O)N1CCC(Oc2cnc3[nH]cc(C(=O)NCc4cccc(F)c4)c3c2)CC1 [Example 340, 5-[(1-acryloylpiperidin-4-yl)oxy]-N-(3-fluorobenzyl)-1H-pyrrolo[2,3-b]pyridine-3-carboxamide] |
| 52.3 nM | 4500 nM | C=CC(=O)N1CCC(Nc2cnc3[nH]cc(C(=O)NCC)c3c2)CC1 [Example 352, 5-((1-acryloylpiperidin-4-yl)amino)-N-ethyl-1H-pyrrolo[2,3-b]pyridine-3-carboxamide] |
| 26.7 nM | 2540 nM | C=CC(=O)N1CCC(Oc2cnc3[nH]cc(C(=O)N[C@H]4CC[C@@H](F)C4)c3c2)CC1 [Example 344, 5-[(1-acryloylpiperidin-4-yl)oxy]-N-[(1S,3R)-3-fluorocyclopentyl]-1H-pyrrolo[2,3-b]pyridine-3-carboxamide] |
| 14.4 nM | 1840 nM | C=CC(=O)N1CCC(Nc2cnc3[nH]cc(C(=O)N[C@@H]4C[C@H]4C(F)(F)F)c3n2)CC1C (mixture of isomers) [Example 337, Racemic-2-[(1-acryloyl-2-methylpiperidin-4-yl)amino]-N-[(1R,2R)-2-(trifluoromethyl)cyclopropyl]-5H-pyrrolo[2,3-b]pyrazine-7-carboxamide] |
| 7.79 nM | 1110 nM | C=CC(=O)N1C[C@H](Nc2cnc3[nH]cc(C(=O)NCCOC)c3n2)C[C@@H]1COC [Example 246, 2-{[(3R,5R)-1-acryloyl-5-(methoxymethyl)pyrrolidin-3-yl]amino}-N-(2-methoxyethyl)-5H-pyrrolo[2,3-b]pyrazine-7-carboxamide] |
| 4.99 nM | 802 nM | C=CC(=O)N1CCC(Nc2cnc3[nH]cc(C(=O)NCC(C)(C)C)c3n2)CC1C (racemic) [Example 267, Racemic-2-[(1-acryloyl-2-methylpiperidin-4-yl)amino]-N-(2,2-dimethylpropyl)-5H-pyrrolo[2,3-b]pyrazine-7-carboxamide] |
| 55.3 nM | 6460 nM | C=CC(=O)N1C[C@@H](CC)[C@@H](Nc2cnc3[nH]cc(C(=O)NCCOC)c3n2)C1 [Example 257, 2-{[(3R,4R)-1-acryloyl-4-ethylpyrrolidin-3-yl]amino}-N-(2-methoxyethyl)-5H-pyrrolo[2,3-b]pyrazine-7-carboxamide] |
| 24.2 nM | 3080 nM | C=CC(=O)N1CCC(Oc2cnc3[nH]cc(C(=O)NCCC)c3c2)CC1 [Example 347, 5-[(1-acryloylpiperidin-4-yl)oxy]-N-propyl-1H-pyrrolo[2,3-b]pyridine-3-carboxamide] |
| 6.23 nM | 1050 nM | C=CC(=O)N1C[C@H](Nc2cnc3[nH]cc(C(=O)NCCOC)c3n2)C[C@H]1COC [Example 258, 2-{[(3R,5S)-1-acryloyl-5-(methoxymethyl)pyrrolidin-3-yl]amino}-N-(2-methoxyethyl)-5H-pyrrolo[2,3-b]pyrazine-7-carboxamide] |

The next lines start with the compound.

| SMILES | IC50 (JAK3 enzyme [1]) | IC50 (JAK3 enzyme [2]) |
| --- | --- | --- |
| C=CC(=O)N1CCC(Oc2cnc3[nH]cc(C#N)c3n2)CC1 [Example 114, 2-[(1-Acryloylpiperidin-4-yl)oxy]-5H-pyrrolo[2,3-b]pyrazine-7-carbonitrile] | 19.7 nM | 3810 nM |
| C=CC(=O)N1CCC(Oc2cnc3[nH]cc(C(=O)N[C@H](C(C)C)[C@@H](O)C(F)(F)F)c3n2)CC1 [Example 202, 2-[(1-acryloylpiperidin-4-yl)oxy]-N-[(2R,3R)-1,1,1-trifluoro-2-hydroxy-4-methylpentan-3-yl]-5H-pyrrolo[2,3-b]pyrazine-7-carboxamide] | 5.31 nM | 697 nM |
| C=CC(=O)N1CCC(Nc2cnc3[nH]cc(S(=O)(=O)NC(C)C)c3n2)CC1 [Example 127, 2-[(1-Acryloylpiperidin-4-yl)amino]-N-(propan-2-yl)-5H-pyrrolo[2,3-b]pyrazine-7-sulfonamide] | 9.43 nM | 1080 nM |
| C=CC(=O)N1C[C@@H](Nc2ncnc3[nH]ccc23)CC[C@H]1COC (single isomer, unassigned) [Example 93] | 711 nM | > 3160 nM |
| C=CC(=O)N1CCN(c2cnc3[nH]cc(C(=O)N[C@@H](C)[C@H](O)c4ccccc4)c3n2)CC1(C)C [Example 156, 2-(4-acryloyl-3,3-dimethylpiperazin-1-yl)-N-[(1R,2S)-1-hydroxy-1-phenylpropan-2-yl]-5H-pyrrolo[2,3-b]pyrazine-7-carboxamide] | 28.9 nM | 4090 nM |
| C=CC(=O)N1C[C@H](Nc2ncnc3[nH]ccc23)CC[C@@H]1COC (single isomer, unassigned) [Example 92] | 20.9 nM | 2440 nM |
| C=CC(=O)N1C[C@H](Nc2ncnc3[nH]ccc23)CC[C@@H]1CNC(C)=O (single isomer, unassigned) [Example 89] | 76.4 nM | 7670 nM |
| C=CC(=O)N1CC[C@@H](COc2cnc3[nH]cc(C(=O)N[C@H](C)COC)c3n2)C1 (single isomer, unassigned) [Example 14] | 54.8 nM | 3010 nM |
| C=CC(=O)N1CCN(c2cnc3[nH]cc(C(=O)NC4COCc5ccccc54)c3n2)CC1(C)C (racemic) [Example 144, Racemic-2-(4-acryloyl-3,3-dimethylpiperazin-1-yl)-N-(3,4-dihydro-1H-isochromen-4-yl)-5H-pyrrolo[2,3-b]pyrazine-7-carboxamide] | 3.32 nM | 430 nM |
| C=CC(=O)N1CC[C@@H](Oc2cnc3[nH]cc(C(=O)N[C@@H](C)COC)c3n2)C1 [Example 53, 2-{[(3R)-1-acryloylpyrrolidin-3-yl]oxy}-N-[(2S)-1-methoxypropan-2-yl]-5H-pyrrolo[2,3-b]pyrazine-7-carboxamide] | 31.2 nM | 4000 nM |
| C=CC(=O)N1CCN(c2cnc3[nH]cc(C(=O)N[C@H](CO)[C@@H](C)CC)c3n2)CC1(C)C [Example 145, 2-(4-acryloyl-3,3-dimethylpiperazin-1-yl)-N-[(2S,3S)-1-hydroxy-3-methylpentan-2-yl]-5H-pyrrolo[2,3-b]pyrazine-7-carboxamide] | 18.4 nM | 1930 nM |
| C=CC(=O)N1CCN(c2cnc3[nH]cc(C(=O)N[C@H](CO)CCC)c3n2)CC1(C)C [Example 161, 2-(4-acryloyl-3,3-dimethylpiperazin-1-yl)-N-[(2S)-1-hydroxypentan-2-yl] 5H-pyrrolo[2,3-b]pyrazine-7-carboxamide] | 7.35 nM | 1120 nM |
| C=CC(=O)N1CCC(Oc2cnc3[nH]cc(C(C)O)c3n2)CC1 (racemic) [Example 117] | 11.9 nM | 1490 nM |
| C=CC(=O)N1CCCC(Nc2cnc3[nH]cc(C(=O)NCC)c3n2)C1 (single isomer, unassigned) [Example 35] | 6.77 nM | 621 nM |
| C=CC(=O)N1CCN(c2cnc3[nH]cc(C(=O)N[C@@H]4CCO[C@H]4C)c3n2)CC1(C)C [Example 160, 3-({[2-(4-acryloyl-3,3-dimethylpiperazin-1-yl)-5H-pyrrolo[2,3-b]pyrazin-7-yl]carbonyl}amino)-2,5-anhydro-1,3,4-trideoxy-D-erythro-pentitol] | 4.33 nM | 463 nM |
| C=CC(=O)N1CCN(c2cnc3[nH]cc(C(=O)N[C@H](C)COC)c3n2)CC1(C)COC (stereo partly drawn) [Example 63, 2-(4-acryloyl-3-(methoxymethyl)-3-methylpiperazin-1-yl)-N-((R)-1-methoxypropan-2-yl)-5H-pyrrolo[2,3-b]pyrazine-7-carboxamide] | 2.44 nM | 379 nM |
| C=CC(=O)N1C[C@H](C2CC2)[C@H](Nc2cnc3[nH]cc(C(=O)NCC)c3n2)C1 [Example 238, 2-{[(3S,4S)-1-acryloyl-4-cyclopropylpyrrolidin-3-yl]amino}-N-ethyl-5H-pyrrolo[2,3-b]pyrazine-7-carboxamide] | 9.48 nM | 1360 nM |
| C=CC(=O)N1CCC(Oc2cnc3[nH]cc(-c4ncn(C)n4)c3n2)CC1 [Example 126, 1-(4-{[7-(1-Methyl-1H-1,2,4-triazol-3-yl)-5H-pyrrolo[2,3-b]pyrazin-2-yl]oxy}piperidin-1-yl)prop-2-en-1-one] | 14.9 nM | 3530 nM |
